Source: patent US12497460B2, “Anti-MSR1 antibodies and methods of use thereof” (REGENERON PHARMACEUTICALS, INC., priority 2018, dated 2025)
In brackets after ≈: the same amount, converted by molar mass. Entries after “also recorded” stand apart in the source; their conditions may differ. Like-named read-outs stand apart in the source and are kept apart here. Marks after values point to notes of the source that are not given here.

Experiments:
[1] = tested on: Msr1^hu/hu ApoE^−/− mice, peritoneal cells; assay: Ex vivo LPS-induced cytokine production by peritoneal cells after in vivo dosing; set-up: species or system mouse
Method: (§1) To examine the anti-inflammatory effect of the anti-MSR1 antibody-steroid conjugates, an ex-vivo and in vivo LPS-induced inflammatory immune response model was performed.
(§2) Generation of a mouse inflammatory immune response model. Mice homozygously expressing human MSR1 extracellular domain in place of the mouse MSR1 extracellular domain and with a homozygous deletion of the ApoE gene were utilized (resulting mice referred to as Msr1^hu/hu ApoE^−/− mice).
(§3) Assay protocol for ex vivo LPS-induced responses. In ex vivo LPS challenge experiments, mice were intraperitoneally administered with 10 μL/g of anti-MSR1 antibody-steroid conjugates (H1H21234N-N297Q-LP13), isotype control steroid conjugate (Isotype control-LP13), unconjugated anti-MSR1 antibody (H1H21234N-N297Q) and isotype control antibodies at different time points (24, 48, and 72 hours) prior to harvesting the peritoneal cells from peritoneal cavity. […] All mice were sacrificed at 0 hour time point and peritoneal cells were obtained from the peritoneum by the peritoneal lavage technique. In brief, 5 mL of ice cold 1×PBS (ThermoFisher Scientific, Cat #20012027) containing 2% BSA (Gibco, Cat #A9576) and 0.6 mM EDTA (ThermoFisher Scientific, Cat #15575020) were injected into the peritoneal cavity using 27 g needle. […] The resuspended cells were plated at 500,000 cells per well in 24-well tissues culture plates and incubated with or without 10 ng/mL of LPS for 18 hours.
Measurement of cytokines at 18 hours post-LPS ex vivo challenge. Supernatants were collected into 96-well round bottom tissue culture plates at 18 hours post-ex vivo LPS challenge and stored at […] until further analysis. Cytokine concentrations in the supernatants were measured using a Proinflammatory Panel 1 (mouse) multiplex immunoassay kit (MesoScale Diagnostics, Cat #K15048D) according to manufacturer's instructions. Electrochemiluminescence was read on a Meso Scale Diagnostics SECTOR® instrument. Data analysis was performed using GraphPad Prism™ software. Statistical significance within the groups was determined by one-way Anova with Turkey's multiple comparison post-test (*p<0.01; **p<0.001; ***p<0.0001).

Msr1^hu/hu ApoE^−/− mice = assay: In vivo LPS-induced cytokine production in serum; set-up: species or system mouse; conditions: 1.48 mg/kg, 2 hours before in vivo LPS
Method: as §1, §2
(§4) Assay protocol for in vivo LPS-induced responses. In in vivo LPS challenge experiments, mice were intraperitoneally administered with 10 μL/g of decreasing concentrations of anti-MSR1 antibody-steroid conjugates (H1H21234N-N297Q-LP13) and isotype control steroid conjugate (Isotype control-N297Q-LP13) at 24 hours prior to in vivo LPS challenge. PBS and free steroid P4 were intraperitoneally injected at 2 hours prior to in vivo LPS challenge. At 0 hour time point, three large drops of blood (volume ˜ 100 μL) were collected from the maxillary vein of each mouse into serum gel separator tubes. The tubes were centrifuged at 2200-2500 rpm for 15 minutes, and the serum was collected into 96-well plates for subsequent measurement of cytokines. At 18 hours post in vivo LPS challenge, the peritoneal cells were obtained from periotenal cavity as aforementioned for subsequent flow cytometry analysis.

[2] = tested on: Msr1^hu/hu ApoE^−/− mice, peritoneal macrophages; assay: LPS-mediated expression of CD80 on peritoneal macrophages (flow cytometry); assay type: in vivo, mouse; conditions: administered 2 hours before
Method: as §3, §4
Analysis of expression of activation markers on peritoneal macrophages after LPS ex vivo challenge. Upon collection of supernatants for cytokine analysis, the plates were washed twice with 1×PBS w/o Ca^++/Mg2^++ (ThermoFisher Scientific, Cat #14190144), and the adherent peritoneal cells were harvested by addition of 250-300 μL of cold Macrophage Detachment Solution DXF (PromoCell, Cat #C41330) for 40 minutes. The detached cells were collected into 50-mL tubes and centrifuged at 350×g for 15 minutes. After two washes with 1×PBS supplemented with 2 mM EDTA, the cells were resuspended in Cell Staining Buffer (Biolegend, #420201) and plated at 1×10^6 cells per well in a 96-well V bottom plate. […] Data were analyzed using FlowJo (Tree Star).

[3] = tested on: LPS-induced IL-1β release in differentiated THP-1 cells; assay: LPS-mediated IL-1β release assay; assay type: cell-based, human; conditions: for IC50: Homo sapiens
Method: To test the anti-inflammatory properties of anti-MSR1 antibody-steroid conjugates in vitro, a lipopolysaccharide (LPS)-mediated IL-1β release assay was performed. For the assay, THP-1 cells were seeded onto 96 well plates at 40,000 cells/well in media containing RPMI supplemented with 10% FBS and pencillin/streptomycinin and differentiated with 200 nM Phorbol Myristate Acetate (PMA) for 3 days. After the 3-day differentiation period, three-fold serial dilutions of antibody drug conjugates, unconjugated antibodies, or free payloads in fresh media were added to the cells at final concentration ranging from 100 nM to 0.01 nM. Media alone served as a blank control. Subsequently at 24, 48, or 72 hours later, cells were treated with 100 ng/ml LPS (InVivoGen, Cat #tlrl-eklps) for 5 hours. The cell media was then collected, and IL-1β levels were measured using a V-PLEX Proinflammatory Panel 1 human kit (Meso Scale Diagnostics, Cat #15049D-2) as per manufacturer's instructions. Subsequently, the plate was read on a Meso Scale Diagnostics instrument.
IC50 values were determined from a four-parameter logistic equation over a 10-point response curve (GraphPad Prism). All IC50 values are expressed in M (molar) concentration. The IC50 values and IL-1β amount at the maximum concentration of antibody-steroid conjugates or controls are shown in Table 22 each of the time point tested.

[4] = Solubility in water of linker-payloads
[5] = tested on: intracellular S. aureus NRS384 in THP-1 macrophages; assay: Intracellular S. aureus killing assay with rifamycin analogs (Example 44); assay type: cell-based; conditions: for Intracellular killing MIC: lowest concentration that resulted in intracellular S. aureus eradication, THP-1 macrophages; for intracellular S. aureus killing (in words): infected THP-1 macrophages, 2h treatment, compared to rifampicin
Method: The rifamycin analog compounds' activity against S. aureus was tested in an intracellular “killing” assay.
THP-1 monocytic cell line was grown in media (RMPI+10% FBS+1% Penicillin/Streptomycin), then seeded at a density of 1e5 cells/well in a 96 well plate and differentiated into macrophages for three days prior to infection using 200 nM PMA. An overnight culture of S. aureus NRS384 was grown in RPMI, washed twice with PBS and resuspended at 1e7 cfu/mL in PBS. THP-1 were washed with warm media (RMPI without FBS) to remove the Penicillin/Streptomycin and then infected with the S. aureus suspension at a multiplicity of infection of 10:1 (S. aureus: macrophages). Plates were spun at 300×g for 5 minutes to synchronize adhesion of the bacteria, then incubated at 37° C. for 2 hours. Free-floating bacteria were removed by washing 2× with warm media and remaining extracellular S. aureus were killed by addition of media containing gentamicin (50 ug/mL). After 1h, media was aspirated and the indicated compound was added to infected macrophages in media containing 50 μg/mL gentamicin to prevent extracellular growth of S. aureus. After 2h, plates were washed 2× with warm RPMI without FBS, and 100 ul of THP-1 lysis buffer (0.1% Triton in PBS) was added to each well. S. aureus survival was enumerated by colony forming units through serial dilution and plating onto TSA.

S. aureus NRS384 = assay: Broth minimum inhibitory concentration (MIC) assay; assay type: cell-based; conditions: S. aureus NRS384, TSB, 24h, 37° C.
Method: To test the efficacy of rifamycin analogs of the disclosure in vitro, a broth growth inhibition assay was developed. For the assay, S. aureus NRS384 was grown in Tryptic Soy Broth (TSB) overnight, then sub-cultured 1:50 in fresh TSB and grown for an additional two hours. The culture was then pelleted via centrifugation and washed twice in PBS. The culture was then diluted to 1×10^4 cfu/mL in TSB and 50 μL of the suspension was added per well to a 96 well microtiter dish in duplicate. A dilution series of the indicated antibiotic (an analog according to the disclosure or a previously known analog Rifampicin) was added 1:1 for a final starting concentration of 1×10^−5 M with 1:3 dilutions.

[6] = administered 2 hours before peritoneal cell isolation, ex vivo LPS

CCCC1O[C@@H]2C[C@H]3[C@@H]4C[C@H](F)C5=CC(=O)C=C[C@]5(C)[C@@]4(F)[C@@H](O)C[C@]3(C)[C@]2(C(=O)CN)O1 (mixture of isomers) [P4, (1S,2S,4R,6R,8S,9S,11S,12R,13S,19S)-8-(2-Aminoacetyl)-12,19-difluoro-11-hydroxy-9,13-dimethyl-6-propyl-5,7-dioxapentacyclo[10.8.0.0^2,9.0^4,8.0^13,18]icosa-14,17-dien-16-one]
Cytokine IL-6 [1, 6]: 12.98 ± 5.8**** ng/mL
Cytokine KC-GRO [1, 6]: 2.6 ± 1.3** ng/mL
Cytokine TNF-α [1, 6]: 0.43 ± 0.06** ng/mL
effect on ex vivo LPS-induced cytokine production (IL-6, KC-GRO, TNF-α) by peritoneal cells ([1]; i.p. dosing 24, 48, 72 hours (conjugates, antibodies) or 2 hours (free steroids) before cell harvest, 10 ng/mL LPS 18 hours): Comparable inhibition of LPS-induced immune responses
Cytokine IL-6 in serum (Msr1^hu/hu ApoE^−/− mice): 3.51 ± 0.7 ng/mL
Cytokine KC-GRO in serum (Msr1^hu/hu ApoE^−/− mice): 4.1 ± 1.5 ng/mL
Cytokine TNF-α in serum (Msr1^hu/hu ApoE^−/− mice): 0.09 ± 0.02 ng/mL
LPS-mediated expression of CD80, pMΦ Cells ([2]; hMSR1+F4/80+CD11b+ peritoneal macrophages): 54.7 ± 3.8 % relative to PBS/LPS-treatment
LPS-mediated expression of CD80, non-pMΦ Cells ([2]; hMSR1−F4/80−CD11b− cells): 93.02 ± 4.4 % relative to PBS/LPS-treatment
IL1beta released at max concentration tested ([3]; 24 hour treatment before LPS): 43.39 pg/mL
IL1beta released at max concentration tested ([3]; 48 hour treatment before LPS): 9.3 pg/mL
IL1beta released at max concentration tested ([3]; 72 hour treatment before LPS): 12.95 pg/mL
IC50 ([3]; THP-1, 24-hour time point, 100 ng/ml LPS for 5 hours, read-out: IC50, inhibition of LPS-induced IL-1β secretion): 0.849 nM
IC50 ([3]; THP-1, 48-hour time point, 100 ng/ml LPS for 5 hours, read-out: IC50, inhibition of LPS-induced IL-1β secretion): 1.02 nM
IC50 ([3]; THP-1, 72-hour time point, 100 ng/ml LPS for 5 hours, read-out: IC50, inhibition of LPS-induced IL-1β secretion): 1.2 nM
IC50 ([3]; THP-1, 24 hour treatment before LPS, read-out: EC50 (the source's name)): 0.849 nM
IC50 ([3]; THP-1, 48 hour treatment before LPS, read-out: EC50 (the source's name)): 1.02 nM
IC50 ([3]; THP-1, 72 hour treatment before LPS, read-out: EC50 (the source's name)): 1.2 nM

CCCC1O[C@@H]2C[C@H]3[C@@H]4C[C@H](F)C5=CC(=O)C=C[C@]5(C)[C@@]4(F)[C@@H](O)C[C@]3(C)[C@]2(C(=O)CNC(=O)OCc2ccc(NC(=O)[C@H](CCCNC(N)=O)NC(=O)[C@@H](NC(=O)CCOCCOCCOCCOCCNC(=O)CCC(=O)N3Cc4ccccc4C#Cc4ccccc43)C(C)C)cc2)O1 (stereo partly drawn) [LP13]
solubility [4]: 0.02 mg/mL (≈ 14.2 µM)

CO[C@H]1/C=C/O[C@@]2(C)Oc3c(C)c(O)c4c(=O)c(c5n(C)c6cc(O)ccc6nc-5c4c3C2=O)NC(=O)/C(C)=C\C=C\[C@H](C)[C@H](O)[C@@H](C)[C@@H](O)[C@@H](C)[C@H](OC(C)=O)[C@@H]1C [R1d, Rifamycin 4-OH-Phenol N-Methyl Analogs]
Intracellular killing MIC [5]: >1.0E−06
S. aureus Broth MIC (S. aureus NRS384): 0.37 µM

CO[C@H]1/C=C/O[C@@]2(C)Oc3c(C)c(O)c4c(=O)c(c5oc6cc(OC7CCNCC7)ccc6nc-5c4c3C2=O)NC(=O)/C(C)=C\C=C\[C@H](C)[C@H](O)[C@@H](C)[C@@H](O)[C@@H](C)[C@H](OC(C)=O)[C@@H]1C [R14]
intracellular S. aureus killing (in words) [5]: increased intracellular S. aureus killing capacity compared to rifampicin
Intracellular killing MIC [5]: 1.0E−06
S. aureus Broth MIC (S. aureus NRS384): 0.041 µM

CO[C@H]1/C=C/O[C@@]2(C)Oc3c(C)c(O)c4c(=O)c(c5oc6cc(OCCN(C)C)ccc6nc-5c4c3C2=O)NC(=O)/C(C)=C\C=C\[C@H](C)[C@H](O)[C@@H](C)[C@@H](O)[C@@H](C)[C@H](OC(C)=O)[C@@H]1C [R16a]
intracellular S. aureus killing (in words) [5]: increased intracellular S. aureus killing capacity compared to rifampicin; also recorded: highest activity
Intracellular killing MIC [5]: 4.0E−08
S. aureus Broth MIC (S. aureus NRS384): 0.0015 µM
